Laboratory results: US12215354B2, “Differentiation of human embryonic stem cells into single hormonal insulin positive cells” (Janssen Biotech, Inc., priority 2011, dated 2025)

Tested on: human embryonic stem cell line H1
Assay: Real-time PCR gene expression, dose and stage of ascorbic acid (Example 12)
Format: cell-based
Method: Cells of the human embryonic stem cell line H1 at various passages (passage 40 to passage 52) were seeded as single cells at a density of 100,000 cells/cm^2 on MATRIGEL™ (1:30 dilution) coated dishes in mTesr™1 media and 10 μM of Y27632. Forty eight hours post seeding, cultures were differentiated into pancreatic endocrine lineage as follows: • a. Stage 1 (Definitive Endoderm (DE)−3 days): Prior to start of DE, the cultures were washed and incubated with incomplete PBS (no Mg or Ca) for 30 seconds followed by addition of the stage 1 media. Human embryonic stem cells cultured as single cells on MATRIGEL™-coated dishes were treated with MCDB-131 medium supplemented with 0.1% fatty acid-free BSA, 0.0012 g/ml sodium bicarbonate, 1× GLUTAMAX™, 5 mM D-Glucose, and 100 ng/ml GDF8 plus 1 μM MCX compound (GSK3B inhibitor) for one day. Cells were then treated with MCDB-131 medium supplemented with 0.1% fatty acid-free BSA, 0.0012 g/ml sodium bicarbonate, 1× GLUTAMAX™, 5 mM glucose, and 100 ng/ml GDF8 plus 100 nM MCX compound for day two, followed by an additional day in MCDB-131 medium supplemented with 0.1% fatty acid-free BSA, 0.0012 g/ml sodium bicarbonate, 1× GLUTAMAX™, 5 mM Glucose, and 100 ng/ml GDF8. • b. Stage 2 (Primitive gut tube−2 days): Stage 1 cells were treated with MCDB-131 medium supplemented with 0.1% fatty acid-free BSA, 0.0012 g/ml sodium bicarbonate, 1× GLUTAMAX™, 5 mM D-Glucose, with or without the addition of 0.25 mM ascorbic acid and 25 ng/ml FGF7 for two days. • c. Stage 3 (Foregut−2 days): Stage 2 cells were treated with MCDB131 medium supplemented with 1:200 dilution of ITS-X, 2.5 mM Glucose, 1× GLUTAMAX™, 0.0015 g/ml sodium bicarbonate, 2% fatty acid-free BSA, 10 ng/ml Activin A, 25 ng/ml FGF7, 0.25 μM SANT-1, +/−0.25 mM ascorbic acid, 1 μM RA, 200 nM TPB, 100 nM LDN-193189 for day 1, followed by treatment with MCDB131 medium supplemented with 1:200 dilution of ITS-X, 2.5 mM Glucose, 1× GLUTAMAX™, 0.0015 g/ml sodium bicarbonate, 2% fatty acid-free BSA, 10 ng/ml Activin A, 25 ng/ml FGF7, 0.25 μM SANT-1, +/−0.25 mM ascorbic acid, 1 μM RA, 200 nM TPB, 10 nM LDN-193189 for an additional day. • d. Stage 4 (Pancreatic foregut precursor-2 days): Stage 3 cells were treated with MCDB131 medium supplemented with 1:200 dilution of ITS-X, 2.5 mM Glucose, 1× GLUTAMAX™, 0.0015 g/ml sodium bicarbonate, 2% fatty acid-free BSA, 0.25 μM SANT-1, 50 nM RA, 200 nM TPB, 50 nM LDN-193189, with or without the addition of 0.25 mM to 1 mM ascorbic acid for two days. • e. […]

[1] = at stage 5, ascorbic acid added at stages 2-4

With O=C1O[C@H]([C@@H](O)CO)C(O)=C1O [ascorbic acid] the “benefit of 0.5-1 mM as compared to 0.25 mM ascorbic acid” value (at S4) was “no significant benefit”, the “expression of insulin and Pax4” value [1] was “maintaining” and the “expression of somatostatin, glucagon, and Pax6” value [1] was “significantly reduced”. For the same compound, the “expression of glucagon and somatostatin” value (at stage S3-5, ascorbic acid added at stage 2) was “effective in lowering”.
